Experimental data taken from patent US20210230300A1, “INHIBITORS OF SHP2” (Bayer Aktiengesellschaft, priority 2018, published 2021).
Entries after “also recorded” stand apart in the source; their conditions may differ. Marks after values point to notes of the source that are not given here. Values belong to the molecule of their own block, whether it stands above or below them.

Experiments:
[1] = log D; assay type: physicochemical
[2] = tested on: Mouse 3 day unilateral ureter obstruction (UUO) model; assay: Mouse 3 day unilateral ureter obstruction (UUO) model, macrophage infiltration by flow cytometry (CD45, F4/80); assay type: in vivo; details: 3 day UUO
Experimental: As a placebo, a solution without active ingredient was used (group 2), and a sham operated group with unligated kidney was used as a positive control (group 1)
The infiltration of macrophages in response to the renal injury was measured in a flow cytometry assay with detection antibodies binding to the pan-leukocyte marker CD45, as well as to the macrophage-specific antigen, F4/80.

[3] = tested on: Mouse 10 day unilateral ureter obstruction (UUO) model; assay: Mouse 10 day UUO model, renal mRNA expression of fibrotic markers (TaqMan real time PCR); assay type: in vivo; details: for Col1α1 mRNA expression, percentage vs. placebo / Col3α1 mRNA expression, percentage vs. placebo / Col4α1 mRNA expression, percentage vs. placebo / αSMA mRNA expression, percentage vs. placebo: kidney
Experimental: (§1) The study was performed on male C57/B16J mice (age: 7-8 weeks) that were obtained from Charles River. Mice were anesthetized with continuous inhaled isoflurane, and the left ureter was exposed via a mid-abdominal incision. The mid-ureter was obstructed by two point ligation with silk sutures. The SHAM-operated mouse (n=6) underwent the same procedure except for the obstruction of the left ureter.
(§2) The mice were randomized into four groups (n=10 each group): UUO plus vehicle (10% EtOH/40% PEG/50% water), UUO plus 3 [mg/kg] […] SHP099. Mice were dosed bidaily with vehicle and SHP099. The forth group of mice with UUO was treated once daily with Tivozanib (technical control). At ten days after surgery, mice were euthanized, and kidneys were collected and divided in two parts.
(§3) One part was snap-frozen in liquid nitrogen for RNA analysis. The other part was stored in Davidson's fixative for the preparation of histological sections. Total RNA was isolated from parts of harvested kidneys. Kidney tissue was homogenized and RNA was obtained and transcribed to cDNA. Using TaqMan real time PCR renal mRNA expression of fibrotic markers was analyzed in kidney tissues. For the assessment of fibrosis on the protein level paraffin tissue sections were stained with alpha-smooth muscle actin (αSMA) and Sirius Red/Fast Green Collagen Stainings using standard procedures.
(§4) All data are expressed as means±S.D. Differences between groups were analyzed by one-way ANOVA with Dunnett's corrections for multiple comparisons. Statistical significance was defined as p<0.05.
(§5) After 10 days, the weight of the kidneys was measured, and RNA-markers αSMA, Col1α1, Col3α1, Col4α1 were measured with RT PCR. Further, histological measurements of αSMA (Alpha smooth muscle actin) and Collagen (SR/FG) were carried out.

[4] = tested on: Mouse 10 day unilateral ureter obstruction (UUO) model; assay: Mouse 10 day UUO model, histology (αSMA and Sirius Red/Fast Green collagen staining); assay type: in vivo
Experimental: as §1, §2, §3
Quantitative measurements of alpha-smooth muscle actin (αSMA)-positive as well as Sirius Red (Collagen) positive areas within the kidneys were obtained by computer image analysis using the Axio Scan Z1 (Zeiss) microscope and the Zen software.
as §4, §5

[5] = tested on: mouse renal ischemia reperfusion injury (IRI) model; assay: Mouse uninephrectomy/renal ischemia reperfusion injury (uIRI) model; assay type: in vivo; details: 30 [mg/kg] SHP099 p.o. BID
Experimental: Experiments indicative for acute kidney diseases were carried out in a uninephrectomy/renal ischemia reperfusion injury (uIRI) model (example 3), as e.g. disclosed in Skrypnyk et al (2013).
In a mouse renal ischemia reperfusion injury (IRI) model, uninephrectomy (UNX) with unilateral renal ischemia (RI), was carried out. Therein, one kidney is removed and the remaining kidney undergoes ischemia/reprefusion via renal artery claming, Animals were then treated according to the following groups: […]

[6] = SHP099 3 and 30 mg/kg bidaily, result in words
[7] = Tivozanib once daily (technical control)

log D [1]: 1.7
SMILES: CC1(N)CCN(c2cnc(-c3cccc(Cl)c3Cl)c(N)n2)CC1 [SHP099]
macrophage infiltration ([2]; 100 mg/kg SHP099 BID p.o.): significant, dose-dependent reduction | collagen RNA expression in kidney (Collagen 1a1, 3a1, 4a1) [3, 6]: strong and very significant reduction; also recorded: dose-dependent reduction | αSMA RNA expression in kidney [3, 6]: strong and very significant reduction; also recorded: dose-dependent reduction | Col1α1 mRNA expression, percentage vs. placebo ([3]; 3 [mg/kg] SHP099 bidaily): 77% | Col3α1 mRNA expression, percentage vs. placebo ([3]; 3 [mg/kg] SHP099 bidaily): 82% | Col4α1 mRNA expression, percentage vs. placebo ([3]; 3 [mg/kg] SHP099 bidaily): 85% | αSMA mRNA expression, percentage vs. placebo ([3]; 3 [mg/kg] SHP099 bidaily): 81% | Col1α1 mRNA expression, percentage vs. placebo ([3]; 30 [mg/kg] SHP099 bidaily): 51% | Col3α1 mRNA expression, percentage vs. placebo ([3]; 30 [mg/kg] SHP099 bidaily): 54% | Col4α1 mRNA expression, percentage vs. placebo ([3]; 30 [mg/kg] SHP099 bidaily): 56% | αSMA mRNA expression, percentage vs. placebo ([3]; 30 [mg/kg] SHP099 bidaily): 47% | αSMA-positive area within the obstructed kidney ([4]; 3 [mg/kg] SHP099 bidaily): significant reduction | collagen deposition in kidneys ([4]; SHP099 treated, compared to untreated or Tivozanib treated mice, dose not stated): strong and significant reduction | aSMA-positive area in kidneys ([4]; SHP099 treated, dose not stated): strong and significant reduction | Collagen content (SR/FG staining) ([4]; both dosages of SHP099 (3 and 30 mg/kg bidaily)): dose dependently and significantly reduced | podocyte marker NHPS1 expression [5]: reproducible and strong effects | serum creatinine [5]: robust reduction | serum urea [5]: mild reduction

SMILES: COc1cc2nccc(Oc3ccc(NC(=O)Nc4cc(C)on4)c(Cl)c3)c2cc1OC [Tivozanib]
macrophage infiltration ([2]; 3 mg/kg Tivozanib QD p.o., in comparison with SHP099): weaker effects | Col1α1 mRNA expression, percentage vs. placebo [3, 7]: 62% | Col3α1 mRNA expression, percentage vs. placebo [3, 7]: 76% | Col4α1 mRNA expression, percentage vs. placebo [3, 7]: 71% | αSMA mRNA expression, percentage vs. placebo [3, 7]: 64* % | Collagen content (SR/FG staining) [4, 7]: significantly reduced | αSMA-positive area within the obstructed kidney [4, 7]: significantly reduced
